Patent US9409881B2, “Herbicidally active 6′-phenyl-2,2′-bipyridine-3-carboxylic acid derivatives” (BAYER CROPSCIENCE AG, priority 2012, dated 2016)

| melting point | Structure (SMILES) |
| --- | --- |
| 120.5 °C | COC(=O)c1cccnc1-c1cccc(-c2ccc(Cl)cc2)n1 [Chemical Example 2, Methyl 6′-(4-chlorophenyl)-2,2′-bipyridine-3-carboxylate] |
| 221 °C | O=C(O)c1cccnc1-c1cccc(-c2ccc(Cl)cc2)n1 [Chemical Example 3, 6′-(4-Chlorophenyl)-2,2′-bipyridine-3-carboxylic acid] |
